Literature values, collected in patent publication US12357614B2, “L-ergothioneine-containing composition” (NAGASE & CO., LTD., priority 2020, dated 2025).

What was measured:
Escherichia coli = conditions: EGT at 5 mM and 50 mM
[1] = test system: mouse bone marrow-derived macrophages; conditions: 10 mM EGT, toll-like receptor ligand stimulation
OT-II CD4^+ T cells = conditions: 30 mM EGT, co-culture with F4/80 macrophages

## C[N+](C)(C)[C@@H](Cc1c[nH]c(=S)[nH]1)C(=O)[O-] [EGT, N,N,N-trimethyl-L-2-thiohistidine]
Escherichia coli
  growth of Escherichia coli: suppresses the growth of Escherichia coli
[1]
  production of cytokines (IL-6, IL-12p40, IL-1β, IL-10): promoted
OT-II CD4^+ T cells
  Th17 polarization of OT-II CD4^+ T cells: promoted
